Assay results from ChEMBL document CHEMBL1201862, “PubChem BioAssay data set” (2004).
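Results reflect a 48-hour exposure of cells in 96-well plates to compound at five concentrations. Abbreviation: GI50, concentration required for 50% inhibition of growth.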 Activity calls are given as the source filed them. No stated cut-off is given here; in the data, active = GI50 up to about 1.1 µM and inactive = higher.

Tests used:
Test in all cases: DTP human tumour cell line panel, 48 h
786-0 = tested on: 786-0
A498 = tested on: A498
A549 = tested on: A549
ACHN = tested on: ACHN
BT-549 = tested on: BT-549
CAKI-1 = tested on: CAKI-1
CCRF-CEM = tested on: CCRF-CEM
COLO 205 = tested on: COLO 205
DLD-1 = tested on: DLD-1
DMS-114 = tested on: DMS-114
DMS-273 = tested on: DMS-273
DU-145 = tested on: DU-145
EKVX = tested on: EKVX
HCC 2998 = tested on: HCC 2998
HCT-116 = tested on: HCT-116
HCT-15 = tested on: HCT-15
HL-60 = tested on: HL-60
HOP-18 = tested on: HOP-18
HOP-62 = tested on: HOP-62
HOP-92 = tested on: HOP-92
HT-29 = tested on: HT-29
Hs-578T = tested on: Hs-578T
IGROV-1 = tested on: IGROV-1
K562 = tested on: K562
KM-20L2 = tested on: KM-20L2
KM12 = tested on: KM12
LOX IMVI = tested on: LOX IMVI
LXFL 529 = tested on: LXFL 529
M14 = tested on: M14
M19-MEL = tested on: M19-MEL
MCF7 = tested on: MCF7
MDA-MB-231 = tested on: MDA-MB-231
MDA-MB-435 = tested on: MDA-MB-435
MDA-N = tested on: MDA-N
MOLT-4 = tested on: MOLT-4
Malme-3M = tested on: Malme-3M
NCI-H226 = tested on: NCI-H226
NCI-H23 = tested on: NCI-H23
NCI-H460 = tested on: NCI-H460
NCI-H522 = tested on: NCI-H522
OVCAR-3 = tested on: OVCAR-3
OVCAR-4 = tested on: OVCAR-4
OVCAR-5 = tested on: OVCAR-5
OVCAR-8 = tested on: OVCAR-8
PC-3 = tested on: PC-3
RPMI-8226 = tested on: RPMI-8226
RXF 393 = tested on: RXF 393
RXF 631 = tested on: RXF 631
SF-268 = tested on: SF-268
SF-295 = tested on: SF-295
SF-539 = tested on: SF-539
SK-MEL-28 = tested on: SK-MEL-28
SK-MEL-2 = tested on: SK-MEL-2
SK-MEL-5 = tested on: SK-MEL-5
SK-OV-3 = tested on: SK-OV-3
SN12C = tested on: SN12C
SNB-19 = tested on: SNB-19
SNB-75 = tested on: SNB-75
SNB-78 = tested on: SNB-78
SR = tested on: SR
SW-620 = tested on: SW-620
T47D = tested on: T47D
TK-10 = tested on: TK-10
U-251 = tested on: U-251
UACC-257 = tested on: UACC-257
UACC-62 = tested on: UACC-62
UO-31 = tested on: UO-31
XF498 = tested on: XF498

Measured: GI50

O=C1C(Br)=C(c2ccccc2)C(c2ccccc2)=C1c1ccccc1
active: CCRF-CEM 0.269 µM | HL-60 0.67 µM | MOLT-4 0.601 µM | NCI-H522 0.753 µM | SR 0.979 µM
inactive: 786-0 1.95 µM | A498 16.1 µM | A549 13.1 µM | ACHN 2.55 µM | BT-549 3.6 µM | CAKI-1 2.44 µM | COLO 205 1.87 µM | DLD-1 1.82 µM | DMS-114 1.89 µM | DMS-273 1.79 µM | DU-145 13.2 µM | EKVX 8.75 µM | HCC 2998 6.05 µM | HCT-116 1.9 µM | HOP-18 4.9 µM | HOP-62 14.2 µM | HOP-92 1.69 µM | HT-29 2.28 µM | Hs-578T 13.7 µM | IGROV-1 4.28 µM | K562 1.61 µM | KM-20L2 4.78 µM | KM12 5.94 µM | LOX IMVI 1.33 µM | LXFL 529 1.5 µM | M14 2.15 µM | M19-MEL 2.17 µM | MCF7 2.4 µM | MDA-MB-231 1.79 µM | MDA-MB-435 3.82 µM | MDA-N 2.98 µM | Malme-3M 1.75 µM | NCI-H226 8.43 µM | NCI-H23 3.64 µM | NCI-H460 4.83 µM | OVCAR-3 2.61 µM | OVCAR-4 1.99 µM | OVCAR-5 12 µM | OVCAR-8 2.04 µM | PC-3 4.1 µM | RPMI-8226 1.45 µM | RXF 393 1.99 µM | RXF 631 6.49 µM | SF-268 3.44 µM | SF-295 10.9 µM | SF-539 3.01 µM | SK-MEL-28 2.61 µM | SK-MEL-2 4.41 µM | SK-MEL-5 2.94 µM | SK-OV-3 15.9 µM | SN12C 1.95 µM | SNB-19 11.4 µM | SNB-75 3.63 µM | SNB-78 2.12 µM | SW-620 1.77 µM | T47D 2.37 µM | TK-10 3.42 µM | U-251 3.36 µM | UACC-257 3.35 µM | UACC-62 2.38 µM | UO-31 5.5 µM | XF498 1.81 µM
1.76 µM: HCT-15

O=C1c2ccccc2C(=O)N1C/C=N/NS(=O)(=O)c1ccc(Br)cc1
inactive: 786-0 > 100 µM | A498 > 100 µM | A549 > 100 µM | ACHN > 100 µM | CAKI-1 74.1 µM | CCRF-CEM > 100 µM | COLO 205 > 100 µM | DLD-1 > 100 µM | DMS-114 51.6 µM | DMS-273 > 100 µM | EKVX > 100 µM | HCC 2998 > 100 µM | HCT-116 > 100 µM | HL-60 > 100 µM | HOP-18 > 100 µM | HOP-62 > 100 µM | HOP-92 11 µM | HT-29 > 100 µM | IGROV-1 > 100 µM | K562 > 100 µM | KM-20L2 > 100 µM | KM12 > 100 µM | LXFL 529 > 100 µM | M14 > 100 µM | M19-MEL > 100 µM | MOLT-4 > 100 µM | Malme-3M > 100 µM | NCI-H226 > 100 µM | NCI-H23 > 100 µM | NCI-H460 > 100 µM | NCI-H522 > 100 µM | OVCAR-3 > 100 µM | OVCAR-4 > 100 µM | OVCAR-5 > 100 µM | OVCAR-8 > 100 µM | RPMI-8226 > 100 µM | RXF 631 > 100 µM | SF-268 > 100 µM | SF-295 > 100 µM | SF-539 > 100 µM | SK-MEL-28 80 µM | SK-MEL-2 > 100 µM | SK-MEL-5 > 100 µM | SK-OV-3 > 100 µM | SN12C > 100 µM | SNB-19 > 100 µM | SNB-75 > 100 µM | SNB-78 > 100 µM | SR > 100 µM | SW-620 > 100 µM | TK-10 > 100 µM | U-251 > 100 µM | UACC-257 > 100 µM | UACC-62 > 100 µM | UO-31 > 100 µM | XF498 > 100 µM
> 100 µM: HCT-15
